Molecular target: Histone deacetylase (HDAC1 and HDAC2) (Homo sapiens, UniProt Q13547+Q92769)
Experiment: Inhibition of HDAC1/2 in human HeLa cell extracts using acetylated histone peptide as substrate after 30 mins
Format: protein assay

- IC50: 244 nM
SMILES: O=C(CCCCCN1C(=O)c2ccc(NC(=O)Cc3ccccc3)cc2S1(=O)=O)NO
